Blank lines part the entries; values can stand above or below the molecule they belong to.
What was measured:
[1] = Non-enzymatic degradation of substrate ester in the presence of BSA; type: physicochemical
Description: Following these experiments, another factor was then considered. As the interfacial activity of any compound will be affected by surfactants, for instance a protein, one could expect the presence of the enzyme to exert effects on the non-enzymatic nonspecific degradation of the substrate compound. To test this proposition, control experiments were run in which bovine serum albumin (BSA) was substituted for the hydrolytic enzyme in the reaction mixture. The chlorinated hydrocarbons and p-xylene were omitted for convenience.
Racemic 3-(4-methoxyphenyl) glycidic acid methyl ester (10.0 mmols, 2.08 g) was dissolved in 50 mL of the chosen organic solvent, and added to 50 mL of 200 mM sodium phosphate buffer at the chosen pH (7.0, 8.0, or 8.5) in a 250 mL shaker flask. Bovine serum albumin (BSA, 100 mg) was then added. The flask was closed, and agitated for 18 hours at ambient temperature (20-25° C.). The reaction mixture was then poured into a separatory funnel, the organic layer removed (except in the case of 1,4-dioxane, which is miscible in water), and the aqueous layer washed with diethyl ether. The organic layers were then combined, backwashed with water, and dried over anhydrous magnesium sulfate. The organic solvent was then removed under reduced pressure, and the recovered ester weighed to determine the extent of non-enzymatic degradation.

[2] = Stability of glycidic ester in aqueous phosphate buffer with and without toluene; type: physicochemical
Description: In the present invention, enzyme catalysts are present either dissolved or dispersed in an aqueous phase. Although the glycidic esters described herein are generally quite insoluble in water, the epoxide ring is susceptible to opening through nucleophilic attack by species such as hydroxide ions and water molecules, even in the absence of enzymes. […] Therefore, the use of an organic phase as a method for protecting the substrate from undesired transformations by water, hydroxide ions, or water-soluble buffer systems is a significant aspect of this invention. These experimental observations indicate the need for a biphasic system, and preferably a multiphase/extractive membrane reactor as described below, for efficiently conducting the enzyme-mediated resolution process disclosed herein.

[3] = Loss of compound A on extraction with 10% bisulfite solution; type: physicochemical; conditions: diethyl ether solution extracted once with 10% bisulfite solution
Description: 2.0 g of pure, racemic compound A were dissolved in 200 mls of diethyl ether. This organic solution was then extracted once with 250 mls of a 10% bisulfite solution, washed with 250 mls water, dried over magnesium sulphate, and evaporated to leave 1.8 g of racemic compound A, indicating a 10% loss of material. Recovery of material in the absence of the bisulfite wash was nearly quantitative.

[4] = Solubility of racemic ester in toluene; type: physicochemical; conditions: 4° C.
Description: The amount of toluene required to dissolve the racemic ester at 4° C. was determined by dividing the weight of racemic ester by the solubility of the ester in toluene at this temperature (˜0.13 g of racemic ester/g of toluene). The weight of toluene required was then 19.07/0.13=146.7 g. The two organic fractions were combined and toluene was then evaporated until the total weight of toluene plus ester was equal to 146.7+109.5 or 256.2 g. Afterward, the organic concentrate containing ester and toluene was cooled to 4° C. for 18 hours in order to crystallize the (2R,3S) enantiomer of the ester. The precipitated crystals were then filtered and analyzed, while the mother liquor was saved for recycling. The amount of solids collected was 91.9 g. […] The yield of resolved ester was 38.6%.

[5] = Stability of GLOP / racemic ester in solvents on standing; type: physicochemical
Description: At six days, only about half of the original amount of ester remained.

[6] = Degradation rate of racemic ester in membrane reactor system, toluene vs MIBK; type: physicochemical; conditions: organic solution in contact with 50 mM phosphate buffer pH 8.0, membrane reactor
Description: In a separate experiment, the degradation rate of racemic ester was measured in a membrane reactor system using two kinds of solvent, toluene and methyl isobutyl ketone (MIBK), at different concentrations of glycidyl ester. These organic solutions were brought into contact separately with a 50 mM phosphate buffer (pH 8.0) to simulate enzymatic resolution conditions. The amount of ester present in the organic solutions was monitored over several hours.

Lipase OF = assay: Degree of inhibition by reaction products: initial rate of hydrolysis of compound A by Lipase OF; type: biochemical, Candida cylindracea; conditions: pH 8.0, 400 mM compound A in toluene, in the presence of 1 mmole (50 mM) of the compound, A alone = 1.0
Description: (§1) A reaction mixture composed of 12 mls of 50 mM sodium phosphate buffer at pH 8.0 and 8 mls of a 400 mM toluene solution of pure, racemic compound A, was rapidly stirred and the reaction rate monitored by a device known as a “pH stat”. A given amount of a given commercial enzyme preparation was then added to the reaction mixture, and the initial rate of hydrolysis calculated. The reaction was repeated in the presence of 1 mmole (50 mM) of compound C, in the presence of 1 mmole (50 mM) of compound D, and in the presence of 1 mmole (50 mM) of compound E. The results are tabulated in Table 11.

Lipase MAP = assay: Degree of inhibition by reaction products: initial rate of hydrolysis of compound A by Lipase MAP; type: biochemical; conditions: pH 8.0, 400 mM compound A in toluene, in the presence of 1 mmole (50 mM) of the compound, A alone = 1.0
Description: as §1

Lipase P = biological target: T1, Lipase P (Burkholderia cepacia, UniProt P22088); assay: Degree of inhibition by reaction products: initial rate of hydrolysis of compound A by Lipase P; type: biochemical; conditions: pH 8.0, 400 mM compound A in toluene, in the presence of 1 mmole (50 mM) of the compound, A alone = 1.0
T1 construct: purchased Amano
Description: as §1

Palatase M = biological target: T2, Palatase M (Rhizomucor miehei, UniProt P19515); assay: Degree of inhibition by reaction products: initial rate of hydrolysis of compound A by Palatase M; type: biochemical; conditions: pH 8.0, 400 mM compound A in toluene, in the presence of 1 mmole (50 mM) of the compound, A alone = 1.0
T2 construct: purchased Novo
T2 sequence (P19515 95-363): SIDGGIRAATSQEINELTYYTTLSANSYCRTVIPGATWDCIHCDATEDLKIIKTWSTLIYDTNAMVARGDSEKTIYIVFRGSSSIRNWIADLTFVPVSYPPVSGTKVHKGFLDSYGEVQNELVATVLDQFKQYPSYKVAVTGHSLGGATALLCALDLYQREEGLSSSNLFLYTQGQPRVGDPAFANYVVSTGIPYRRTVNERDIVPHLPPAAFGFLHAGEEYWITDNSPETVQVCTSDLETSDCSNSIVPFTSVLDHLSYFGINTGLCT
Description: as §1

[7] = aqueous solution; cited from earlier work

T1 sequence (P22088 45-364): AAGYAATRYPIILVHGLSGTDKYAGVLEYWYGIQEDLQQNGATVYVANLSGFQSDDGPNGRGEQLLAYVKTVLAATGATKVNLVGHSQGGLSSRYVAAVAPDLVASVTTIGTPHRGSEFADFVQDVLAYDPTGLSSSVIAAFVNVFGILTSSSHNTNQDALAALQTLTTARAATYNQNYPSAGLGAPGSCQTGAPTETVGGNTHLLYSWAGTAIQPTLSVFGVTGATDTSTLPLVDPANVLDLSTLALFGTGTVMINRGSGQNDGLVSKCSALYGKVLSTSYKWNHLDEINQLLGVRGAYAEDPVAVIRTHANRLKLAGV

Percent degradation ([1]; 1,4-dioxane, pH 7.0, 18 hours ambient): 40.9% | Percent degradation ([1]; 1,4-dioxane, pH 8.0, 18 hours ambient): 21.6% | Percent degradation ([1]; MIBK, pH 8.0, 18 hours ambient): 15.0% | Percent degradation ([1]; MIBK, pH 8.5, 18 hours ambient): 12.0% | Percent degradation ([1]; MetBuO, pH 7.0, 18 hours ambient): 41.8% | Percent degradation ([1]; MetBuO, pH 8.0, 18 hours ambient): 22.1% | Percent degradation ([1]; benzene, pH 7.0, 18 hours ambient): 38.5% | Percent degradation ([1]; benzene, pH 8.0, 18 hours ambient): 14.4% | Percent degradation ([1]; cyclohexane, pH 7.0, 18 hours ambient): 71.6% | Percent degradation ([1]; cyclohexane, pH 8.0, 18 hours ambient): 38.5% | Percent degradation ([1]; toluene, pH 8.0, 18 hours ambient): 14.3% | Percent degradation ([1]; toluene, pH 8.5, 18 hours ambient): 19.1% | Stability in aqueous buffer ([2]; aqueous sodium phosphate buffer pH 7.0, 18 hours, ambient temperature, no organic solvent or enzyme): loss of glycidic ester | Glycidic ester recovered ([2]; toluene in 1-to-1 phase ratio with pH 7.0 buffer, 18 hours): 100% | Loss of material [3]: 10% | Solubility of the ester in toluene [4]: ~0.13 g of racemic ester/g of toluene | Original amount of ester remaining ([5]; saturated methanol solution, room temperature, six days): about half | Original amount of ester degraded ([5]; saturated methanol solution, room temperature, two days, HPLC): about 9% | Degradation rate constant in MIBK relative to toluene [6]: about 3 times
SMILES: COC(=O)[C@@H]1O[C@H]1c1ccc(OC)cc1 (relative stereo) [Compound A, trans-3-(4-methoxyphenyl)glycidic acid methyl ester]

SMILES: COc1ccc(CC=O)cc1 [C, 4-methoxyphenylacetaldehyde]
Relative Initial Rates (Lipase OF): 0.63 | Relative Initial Rates (Lipase MAP): 0.73 | Relative Initial Rates (Lipase P): 1.00 | Relative Initial Rates (Palatase M): 0.38

SMILES: COc1ccc(CC(=O)O)cc1 [D, 4-methoxyphenylacetic acid]
Relative Initial Rates (Lipase OF): 1.18 | Relative Initial Rates (Lipase MAP): 0.99 | Relative Initial Rates (Lipase P): 1.07 | Relative Initial Rates (Palatase M): >1.0

SMILES: O=S(O)O [bisulfite anion]
pKa [7]: approximately 7

SMILES: COC(=O)[C@@H]1O[C@H]1c1ccc(OC)cc1 [resolved GLOP, (2R,3S)-3-(4-methoxyphenyl)glycidic acid methyl ester]
Stability in solution ([5]; aromatic solvent, ambient temperature, over days): stable against the loss of material or optical activity

Reference: patent publication US6521445B1, “Process for preparing optically active glycidate esters” (Sepracor, Inc., priority 1988, dated 2003)
